Measurements taken from patent publication US20230167118A1, “DEGRADATION OF BRUTON'S TYROSINE KINASE (BTK) BY CONJUGATION OF BTK INIDBITORS WITH E3 LIGASE LIGAND AND METHODS OF USE” (BEIGENE, LTD., priority 2020, published 2023).

Assays:
HEK-293 cells = assay: HEK-293 Cytotoxicity Assay (CellTiter-Glo); format: cell-based; settings: Homo sapiens, HEK293, 72 h incubation, CellTiter-Glo luminescence
How it was run: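 HEK-293 cells treated 72 h with 8 concentrations (4-fold dilutions, 0.2% DMSO final). Viability read by CellTiter-Glo luminescence; IC50 from four-parameter logistic fit of % inhibition.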

BTK = molecular target: T1, BTK (Homo sapiens, UniProt Q06187); assay: Cell Degradation: BTK degradation in TMD-8 cells, HTRF assay; format: cell-based; settings: 6 h treatment, IC50 (DC50) of BTK degradation
T1 construct: High control=Cell group with added DMSO and without compound, indicating microplate readings without BTK degradation; endogenous in cells; host or cells: TMD-8 cells
How it was run: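 TMD-8 cells treated 6 h with 8-dose 6-fold dilutions in 0.2% DMSO, then lysed and BTK quantified by HTRF (665/620 nm). Degradation % normalised to high/low controls; DC50 from four-parameter fit, Dmax as maximal degradation.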

T1 sequence (Q06187 whole entry): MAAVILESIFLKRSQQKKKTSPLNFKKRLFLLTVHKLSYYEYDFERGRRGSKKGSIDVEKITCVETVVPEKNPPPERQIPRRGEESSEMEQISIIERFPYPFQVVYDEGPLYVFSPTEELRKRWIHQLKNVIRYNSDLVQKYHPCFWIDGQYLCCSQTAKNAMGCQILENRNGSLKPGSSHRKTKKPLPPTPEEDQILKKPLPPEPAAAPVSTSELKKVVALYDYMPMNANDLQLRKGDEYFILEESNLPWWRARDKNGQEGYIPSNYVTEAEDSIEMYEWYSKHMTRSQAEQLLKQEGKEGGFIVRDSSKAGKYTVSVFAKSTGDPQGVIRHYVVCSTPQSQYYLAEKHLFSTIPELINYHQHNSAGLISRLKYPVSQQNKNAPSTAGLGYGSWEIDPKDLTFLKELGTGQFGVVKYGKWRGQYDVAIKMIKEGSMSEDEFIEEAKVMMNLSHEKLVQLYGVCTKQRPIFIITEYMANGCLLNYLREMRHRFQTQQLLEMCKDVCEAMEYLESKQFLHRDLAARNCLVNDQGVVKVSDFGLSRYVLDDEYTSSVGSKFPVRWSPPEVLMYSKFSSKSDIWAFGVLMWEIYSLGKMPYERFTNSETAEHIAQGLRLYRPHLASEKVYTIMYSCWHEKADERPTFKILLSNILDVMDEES

SMILES	IC50 (HEK-293 cells)	DC50 (BTK)
C[C@@H](NC(=O)c1nc(C(C)(C)C)no1)c1cc(F)c(-c2ncnc3[nH]c(-c4ccc(N5CCN(CC6CCN(c7ccc(N8CCC(=O)NC8=O)cc7)CC6)CC5)cn4)cc23)cc1CO [Example 178, (R)-3-(tert-butyl)-N-(1-(4-(6-(5-(4-((1-(4-(2,4-dioxotetrahydropyrimidin-1(2H)-yl)phenyl)piperidin-4-yl)methyl)piperazin-1-yl)pyridin-2-yl)-7H-pyrrolo[2,3-d]pyrimidin-4-yl)-5-fluoro-2-(hydroxymethyl)phenyl)ethyl)-1,2,4-oxadiazole-5-carboxamide]	> 10000 nM	0.44 nM
Cc1cc(-c2ncnc3[nH]c(-c4c(C)nn(C5CCN(CC6CCN(c7ccc(N8CCC(=O)NC8=O)c(C)c7)CC6)CC5)c4C)cc23)ccc1[C@@H](C)NC(=O)c1nc(C(C)(C)C)no1 [Example 61, (R)-3-(tert-butyl)-N-(1-(4-(6-(1-(1-((1-(4-(2,4-dioxotetrahydropyrimidin-1(2H)-yl)-3-methylphenyl)piperidin-4-yl)methyl)piperidin-4-yl)-3,5-dimethyl-1H-pyrazol-4-yl)-7H-pyrrolo[2,3-d]pyrimidin-4-yl)-2-methylphenyl)ethyl)-1,2,4-oxadiazole-5-carboxamide]	9000 nM	0.52 nM
Cc1cc(-c2ncnc3[nH]c(-c4ccc(N5CCN(CC6CCN(c7ccc(N8CCC(=O)NC8=O)c(C)c7)CC6)CC5)cc4)cc23)ccc1[C@@H](C)NC(=O)c1nc(C(C)(C)C)no1 [Example 44, (R)-3-(tert-butyl)-N-(1-(4-(6-(4-(4-((1-(4-(2,4-dioxotetrahydropyrimidin-1(2H)-yl)-3-methylphenyl)piperidin-4-yl)methyl)piperazin-1-yl)phenyl)-7H-pyrrolo[2,3-d]pyrimidin-4-yl)-2-methylphenyl)ethyl)-12,4-oxadiazole-5-carboxamide]	> 10000 nM	1.2 nM
Cc1cc(-c2ncnc3[nH]c(-n4nc(C)c(C5CCN(CC6CCN(c7ccc(N8CCC(=O)NC8=O)cc7)CC6)CC5)c4C)cc23)ccc1[C@@H](C)NC(=O)c1nc(C(C)(C)C)no1 [Example 152, (R)-3-(tert-butyl)-N-(1-(4-(6-(4-(1-((1-(4-(2,4-dioxotetrahydropyrimidin-1(2H)-yl)phenyl)piperidin-4-yl)methyl)piperidin-4-yl)-3,5-dimethyl-1H-pyrazol-1-yl)-7H-pyrrolo[2,3-d]pyrimidin-4-yl)-2-methylphenyl)ethyl)-1,2,4-oxadiazole-5-carboxamide]	2460 nM	> 2000 nM
Cc1cc(-c2ncnc3[nH]c(-c4ccc(C5CCN(CC6CCN(c7ccc(N8CCC(=O)NC8=O)cc7)CC6)CC5)cc4)cc23)ccc1CNC(=O)c1nc(C(C)(C)C)no1 [Example 1, 3-(tert-butyl)-N-(4-(6-(4-(1-((1-(4-(2,4-dioxotetrahydropyrimidin-1(2H)-yl)phenyl)piperidin-4-yl)methyl)piperidin-4-yl)phenyl)-7H-pyrrolo[2,3-d]pyrimidin-4-yl)-2-methylbenzyl)-1,2,4-oxadiazole-5-carboxamide]	> 10000 nM	0.54 nM
CC(C)(C)c1noc(C(=O)NCc2ccc(-c3ncnc4[nH]c(-c5ccc(C6CCN(CC7CCN(c8ccc(N9CCC(=O)NC9=O)cc8)CC7)CC6)cc5)cc34)cc2F)n1 [Example 23]	> 10000 nM	0.87 nM
Cc1cc(-c2ncnc3[nH]c(-c4c(C)nn(C5CCN(CC6CCN(c7ccc(N8CCC(=O)NC8=O)cc7)CC6)CC5)c4C)cc23)ccc1[C@@H](C)NC(=O)c1nc(C(C)(C)C)no1 [Example 60, (R)-3-(tert-butyl)-N-(1-(4-(6-(1-(1-((1-(4-(2,4-dioxotetrahydropyrimidin-1(2H)-yl)phenyl)piperidin-4-yl)methyl)piperidin-4-yl)-3,5-dimethyl-1H-pyrazol-4-yl)-7H-pyrrolo[2,3-d]pyrimidin-4-yl)-2-methylphenyl)ethyl)-1,2,4-oxadiazole-5-carboxamide]	> 10000 nM	0.48 nM
Cc1cc(N2CCC(CN3CCN(c4ccc(-c5cc6c(-c7ccc([C@@H](C)NC(=O)c8noc(C(C)(C)C)n8)c(CO)c7)ncnc6[nH]5)cn4)CC3)CC2)ccc1N1CCC(=O)NC1=O [Example 145, (R)-5-(tert-butyl)-N-(1-(4-(6-(6-(4-((1-(4-(2,4-dioxotetrahydropyrimidin-1(2H)-yl)-3-methylphenyl)piperidin-4-yl)methyl)piperazin-1-yl)pyridin-3-yl)-7H-pyrrolo[2,3-d]pyrimidin-4-yl)-2-(hydroxymethyl)phenyl)ethyl)-1,2,4-oxadiazole-3-carboxamide]	> 10000 nM	0.27 nM
Cc1cc(-c2ncnc3[nH]c(-c4ccc(N5CCN(CC6CCN(c7ccc(N8CCC(=O)NC8=O)c(C)c7)CC6)CC5)nc4)nc23)ccc1[C@@H](C)NC(=O)c1nc(C(C)(C)C)no1 [Example 65, (R)-3-(tert-butyl)-N-(1-(4-(8-(6-(4-((1-(4-(2,4-dioxotetrahydropyrimidin-1(2H)-yl)-3-methylphenyl)piperidin-4-yl)methyl)piperazin-1-yl)pyridin-3-yl)-9H-purin-6-yl)-2-methylphenyl)ethyl)-1,2,4-oxadiazole-5-carboxamide]	> 10000 nM	0.6 nM
Cc1cc(-c2ncnc3[nH]c(-c4ccc(N5CCN(C6CC(c7ccc(C8CCC(=O)NC8=O)cc7)C6)CC5)cc4)cc23)ccc1[C@@H](C)NC(=O)c1nc(C(C)(C)C)no1 (stereo partly drawn) [Example 153, 3-(tert-butyl)-N-((1R)-1-(4-(6-(4-(4-(3-(4-(2,6-dioxopiperidin-3-yl)phenyl)cyclobutyl)piperazin-1-yl)phenyl)-7H-pyrrolo[2,3-d]pyrimidin-4-yl)-2-methylphenyl)ethyl)-1,2,4-oxadiazole-5-carboxamide]	9580 nM	2.02 nM
Cc1cc(-c2ncnc3[nH]c(-c4ccc(N5CCN(CCC6CCN(c7ccc([C@@H]8CCC(=O)NC8=O)cc7)CC6)CC5)nc4)cc23)ccc1[C@@H](C)NC(=O)c1nc(C(C)(C)C)no1 [Example 54, 3-(tert-butyl)-N-((R)-1-(4-(6-(6-(4-(2-(1-(4-((S)-2,6-dioxopiperidin-3-yl)phenyl)piperidin-4-yl)ethyl)piperazin-1-yl)pyridin-3-yl)-7H-pyrrolo[2,3-d]pyrimidin-4-yl)-2-methylphenyl)ethyl)-1,2,4-oxadiazole-5-carboxamide]	> 10000 nM	3.7 nM
C[C@@H](NC(=O)c1noc(C(C)(C)C)n1)c1ccc(-c2ncnc3[nH]c(-c4ccc(N5CCN(CC6CCN(c7ccc(N8CCC(=O)NC8=O)cc7)CC6)CC5)cn4)cc23)cc1F [Example 108, (R)-5-(tert-butyl)-N-(1-(4-(6-(5-(4-((1-(4-(2,4-dioxotetrahydropyrimidin-1(2H)-yl)phenyl)piperidin-4-yl)methyl)piperazin-1-yl)pyridin-2-yl)-7H-pyrrolo[2,3-d]pyrimidin-4-yl)-2-fluorophenyl)ethyl)-1,2,4-oxadiazole-3-carboxamide]	> 10000 nM	0.35 nM
C[C@@H](NC(=O)c1noc(C(C)(C)C)n1)c1ccc(-c2ncnc3[nH]c(-c4ccc(N5CCN(CC6CCN(c7ccc(N8CCC(=O)NC8=O)cc7)CC6)CC5)cc4)cc23)cc1CO [Example 118, (R)-5-(tert-butyl)-N-(1-(4-(6-(4-(4-((1-(4-(2,4-dioxotetrahydropyrimidin-1(2H)-yl)phenyl)piperidin-4-yl)methyl)piperazin-1-yl)phenyl)-7H-pyrrolo[2,3-d]pyrimidin-4-yl)-2-(hydroxymethyl)phenyl)ethyl)-1,2,4-oxadiazole-3-carboxamide]	> 10000 nM	0.5 nM
Cc1cc(-c2ncnc3[nH]c(-c4ccc(N5CCN(CC6CCN(c7ccc(N8CCC(=O)NC8=O)cc7)CC6)CC5)nc4)cc23)c(F)cc1[C@@H](C)NC(=O)c1noc(C(C)(C)C)n1 [Example 131, (R)-5-(tert-butyl)-N-(1-(4-(6-(6-(4-((1-(4-(2,4-dioxotetrahydropyrimidin-1(2H)-yl)phenyl)piperidin-4-yl)methyl)piperazin-1-yl)pyridin-3-yl)-7H-pyrrolo[2,3-d]pyrimidin-4-yl)-5-fluoro-2-methylphenyl)ethyl)-1,2,4-oxadiazole-3-carboxamide]	> 10000 nM	0.59 nM
Cc1nn(C2CCN(CC3CCN(c4ccc(N5CCC(=O)NC5=O)cc4)CC3)CC2)c(C)c1-c1cc2c(-c3ccc([C@@H](C)NC(=O)c4cn(C(C)(C)C)nn4)c(CO)c3)ncnc2[nH]1 [Example 122, (R)-1-(tert-butyl)-N-(1-(4-(6-(1-(1-((1-(4-(2,4-dioxotetrahydropyrimidin-1(2H)-yl)phenyl)piperidin-4-yl)methyl)piperidin-4-yl)-3,5-dimethyl-1H-pyrazol-4-yl)-7H-pyrrolo[2,3-d]pyrimidin-4-yl)-2-(hydroxymethyl)phenyl)ethyl)-1H-1,2,3-triazole-4-carboxamide]	4110 nM	0.29 nM
Cc1cc(-c2ncnc3[nH]c(-c4ccc(N5CCN(CC6CCN(c7ccc(N8CCC(=O)NC8=O)c(C)c7)CC6)CC5)cn4)cc23)ccc1[C@@H](C)NC(=O)c1noc(C2(CO)CC2)n1 [Example 123, (R)-N-(1-(4-(6-(5-(4-((1-(4-(2,4-dioxotetrahydropyrimidin-1(2H)-yl)-3-methylphenyl)piperidin-4-yl)methyl)piperazin-1-yl)pyridin-2-yl)-7H-pyrrolo[2,3-d]pyrimidin-4-yl)-2-methylphenyl)ethyl)-5-(1-(hydroxymethyl)cyclopropyl)-1,2,4-oxadiazole-3-carboxamide]	> 10000 nM	0.16 nM
C[C@@H](NC(=O)c1nc(C(C)(C)C)no1)c1ccc(-c2ncnc3[nH]c(-c4ccc(N5CCN(CC6CCN(c7ccc(N8CCC(=O)NC8=O)cc7)CC6)CC5)cc4)cc23)cc1CO [Example 74]	> 10000 nM	0.4 nM
